In patent publication US20240050576A1, “METHODS AND COMPOUNDS FOR THE TREATMENT OF GENETIC DISEASE” (Design Therapeutics, Inc., priority 2020, published 2024):

Tested on: human FXN
Experiment: FXN mRNA expression by qRT-PCR in GM15850 cells after 48 hr compound treatment
Format: cell-based
Conditions: Homo sapiens; GM15850 cells, 48 hr incubation, hFXN normalized to hGAPDH; read-out: EC50 WT (nM, 48 hr)
Procedure: Cell culture: Cells were cultured in RPMI1640 medium+15% FBS. Cells were maintained at a density between 2e5/mL and 1e6/mL. Cells were centrifuged, resuspended in fresh medium, counted and plated at 150,000 cells per well in 100 uL in a non-coated, flat bottom tissue culture plate.
Compound treatment: 10 mM stock solution of FA GeneTAC was diluted 1:10 in DMSO followed by a 1:100 dilution in growth medium. […] Compound was then diluted at a 1:3 ratio into growth medium containing 0.01% DMSO. 5-point, 3-fold dose response curve was generated. 11 μL of 10× compound was added to wells containing 100 μL cell suspension of GM15850. 11 μL growth medium containing 0.01% DMSO was added to all wells not treated with FA GeneTAC. Cells were allowed to incubate for 48 hrs prior to cell lysis using guanidine isothiocyanate solution.
RNA isolation: Total RNA was isolated and purified in 384-well column filter plates using chaotropic salt.
qRT-PCR: qRT-PCR reactions were assembled using AgPath-ID reagents (Thermo Fisher) using 6 uL mastermix and 4 μL RNA. qRT-PCR TaqMan primer probe sets against human FXN (Assay ID Hs01075496_m1) and human GAPDH (Assay ID Hs00266705_g1) were used to measure the intended targets. qRT-PCR was run on the ThermoFisher QuantStudio 6 PRO instrument using the manufacturer's recommended cycling conditions.
Data analysis: qPCR data was analyzed using Thermo Fisher Design and Analysis software. Data was exported to Excel and hFXN expression was normalized to hGAPDH expression.

SMILES: CC(=O)N1c2ccc(-c3cnc(C(=O)NCCOCCOCCOCCOCCOCCOCCOCCOCCNC(=O)CCNC(=O)c4nc(NC(=O)CCNC(=O)c5cc(NC(=O)c6nc(NC(=O)CCNC(=O)c7cc(NC(=O)c8nccn8C)cn7C)cn6C)cn5C)cn4C)nc3)cc2N(Cc2ccccc2CO)C[C@@H]1C1CC1 [Compound 48, N-(5-[[2-([2-[(2-[[26-([5-[(2S)-1-acetyl-2-cyclopropyl-4-[[2-(hydroxymethyl)phenyl]methyl]-2,3-dihydroquinoxalin-6-yl]pyrimidin-2-yl]formamido)-3,6,9,12,15,18,21,24-octaoxahexacosan-1-yl]carbamoyl]ethyl)carbamoyl]-1-methylimidazol-4-yl]carbamoyl)ethyl]carbamoyl]-1-methylpyrrol-3-yl)-1-methyl-4-(3-[[1-methyl-4-(1-methylimidazole-2-amido)pyrrol-2-yl]formamido]propanamido)imidazole-2-carboxamide]
- EC50: > 500 nM

SMILES: Cc1sc2c(c1C)C(c1ccc(Cl)cc1)=N[C@@H](CC(=O)Nc1ccc(OCCOCCOCCOCCOCCOCCOCCOCCOCCNC(=O)CCNC(=O)c3cc(NC(=O)c4nc(NC(=O)CCNC(=O)c5cc(NC(=O)c6nc(NC(=O)CCNC(=O)c7cc(NC(=O)c8nccn8C)cn7C)cn6C)cn5C)cn4C)cn3C)cc1)c1nnc(C)n1-2 [Compound 33]
- EC50: 100 to 500 nM

SMILES: Cc1sc2c(c1C)C(c1ccc(Cl)cc1)=N[C@@H](CC(=O)Nc1ccc(OCCOCCOCCOCCOCCOCCOCCNC(=O)CCNC(=O)c3nc(NC(=O)CCNC(=O)c4cc(NC(=O)c5nc(NC(=O)CCNC(=O)c6cc(NC(=O)c7nccn7C)cn6C)cn5C)cn4C)cn3C)cc1)c1nnc(C)n1-2 [Compound 22]
- EC50: 100 to 500 nM

SMILES: Cc1sc2c(c1C)C(c1ccc(Cl)cc1)=N[C@@H](CC(=O)Nc1ccc(OCCOCCOCCOCCOCCOCCOCCOCCOCCOCCNC(=O)CCNC(=O)c3nc(NC(=O)CCNC(=O)c4cc(NC(=O)c5nc(NC(=O)CCNC(=O)c6cc(NC(=O)c7nccn7C)cn6C)cn5C)cn4C)cn3C)cc1)c1nnc(C)n1-2 [Compound 24]
- EC50: < 100 nM

SMILES: Cc1sc2c(c1C)C(c1ccc(Cl)cc1)=N[C@@H](CC(=O)Nc1ccc(OCCOCCOCCOCCOCCOCCC(=O)NCCCOCCCNC(=O)CCNC(=O)c3nc(NC(=O)CCNC(=O)c4cc(NC(=O)c5nc(NC(=O)CCNC(=O)c6cc(NC(=O)c7nccn7C)cn6C)cn5C)cn4C)cn3C)cc1)c1nnc(C)n1-2 [Compound 58]
- EC50: < 100 nM

SMILES: Cc1sc2c(c1C)C(c1ccc(Cl)cc1)=N[C@@H](CC(=O)Nc1ccc(OCCOCCOCCOCCOCCOCCOCCOCC(=O)NCCCN(C)CCCNC(=O)c3cc(NC(=O)c4nc(NC(=O)CCNC(=O)c5cc(NC(=O)c6nc(NC(=O)CCNC(=O)c7cc(NC(=O)c8nccn8C)cn7C)cn6C)cn5C)cn4C)cn3C)cc1)c1nnc(C)n1-2 [Compound 57]
- EC50: 100 to 500 nM

SMILES: CC(=O)N1c2ccc(-c3cnc(C(=O)NCCOCCOCCOCCOCCOCCC(=O)NCCCN(C)CCCNC(=O)CCNC(=O)c4nc(NC(=O)CCNC(=O)c5cc(NC(=O)c6nc(NC(=O)CCNC(=O)c7cc(NC(=O)c8nccn8C)cn7C)cn6C)cn5C)cn4C)nc3)cc2N(Cc2ccccc2CO)C[C@@H]1C1CC1 [Compound 30]
- EC50: > 500 nM

SMILES: CC(=O)N1c2ccc(-c3ccc(C(=O)NCCOCCOCCOCCOCCOCCOCCOCCOCCNC(=O)c4cc(NC(=O)c5nc(NC(=O)CCNC(=O)c6cc(NC(=O)c7nc(NC(=O)CCNC(=O)[C@H](CCCNC(=N)N)NC(=O)[C@@H](N)CCCNC(=N)N)cn7C)cn6C)cn5C)cn4C)cc3)cc2[C@H](Nc2ccc(Cl)cc2)C[C@@H]1C [Compound 75]
- EC50: > 500 nM

SMILES: Cc1sc2c(c1C)C(c1ccc(Cl)cc1)=N[C@@H](CC(=O)Nc1ccc(OCCOCCOCCOCCOCCOCCC(=O)NCCCN(C)CCCNC(=O)c3cc(NC(=O)c4nc(NC(=O)CCNC(=O)c5cc(NC(=O)c6nc(NC(=O)CCNC(=O)c7cc(NC(=O)c8nccn8C)cn7C)cn6C)cn5C)cn4C)cn3C)cc1)c1nnc(C)n1-2 [Compound 16]
- EC50: 100 to 500 nM

SMILES: Cc1sc2c(c1C)C(c1ccc(Cl)cc1)=N[C@@H](CC(=O)Nc1ccc(OCCOCCOCCOCC(=O)N3CCN(CCOCCOCCOCCNC(=O)CCNC(=O)c4nc(NC(=O)CCNC(=O)c5cc(NC(=O)c6nc(NC(=O)CCNC(=O)c7cc(NC(=O)c8nccn8C)cn7C)cn6C)cn5C)cn4C)CC3)cc1)c1nnc(C)n1-2 [Compound 39]
- EC50: < 100 nM

SMILES: Cc1sc2c(c1C)C(c1ccc(Cl)cc1)=N[C@@H](CC(=O)NC1CCN(CCOCCOCCOCCOCCOCCC(=O)NCCCN(CCCNC(=O)CCNC(=O)c3nc(NC(=O)CCNC(=O)c4cc(NC(=O)c5nc(NC(=O)CCNC(=O)c6cc(NC(=O)c7nccn7C)cn6C)cn5C)cn4C)cn3C)CC(F)(F)F)CC1)c1nnc(C)n1-2 [Compound 101]
- EC50: 100 to 500 nM

SMILES: Cc1cc(-c2nc3cnc(C4CCN(C(=O)COCCOCCOCCOCCOCCC(=O)NCCCN(C)CCCNC(=O)CCNC(=O)c5nc(NC(=O)CCNC(=O)c6cc(NC(=O)c7nc(NC(=O)CCNC(=O)c8cc(NC(=O)c9nccn9C)cn8C)cn7C)cn6C)cn5C)CC4)cc3n2[C@@H](C)c2ccccc2)nn(C)c1=O [Compound 19]
- EC50: < 100 nM

SMILES: CCCNC(=O)c1nc(NC(=O)CCNC(=O)c2cc(NC(=O)c3nc(NC(=O)CCNC(=O)c4cc(NC(=O)c5nc(NC(=O)CCNC(=O)COCCOCCOCCOCCOCCOCCOCCOCCOc6ccc(NC(=O)C[C@@H]7N=C(c8ccc(Cl)cc8)c8c(sc(C)c8C)-n8c(C)nnc87)cc6)cn5C)cn4C)cn3C)cn2C)cn1C [Compound 52]
- EC50: < 100 nM

SMILES: COc1ccc2c(c1)C(c1ccc(Cl)cc1)=N[C@H](CC(=O)Nc1ccc(OCCOCCOCCOCCOCCOCCC(=O)NCCCN(C)CCCNC(=O)CCNC(=O)c3nc(NC(=O)CCNC(=O)c4cc(NC(=O)c5nc(NC(=O)CCNC(=O)c6cc(NC(=O)c7nccn7C)cn6C)cn5C)cn4C)cn3C)cc1)c1nnc(C)n1-2 [Compound 11]
- EC50: > 500 nM

SMILES: CC(=O)N1c2ccc(-c3ccc(C(=O)NCCOCCOCCOCCOCCOCCC(=O)NCCCN(C)CCCNC(=O)CCNC(=O)c4nc(NC(=O)CCNC(=O)c5cc(NC(=O)c6nc(NC(=O)CCNC(=O)c7cc(NC(=O)c8nccn8C)cn7C)cn6C)cn5C)cn4C)cc3)cc2[C@H](Nc2ccc(Cl)cc2)C[C@@H]1C [Compound 31]
- EC50: < 100 nM

SMILES: COc1ccc2c(c1)C(c1ccc(Cl)cc1)=N[C@H](CC(=O)Nc1ccc(OCCOCCOCCOCCOCCOCCOCCOCCOCCNC(=O)CCNC(=O)c3nc(NC(=O)CCNC(=O)c4cc(NC(=O)c5nc(NC(=O)CCNC(=O)c6cc(NC(=O)c7nccn7C)cn6C)cn5C)cn4C)cn3C)cc1)c1nnc(C)n1-2 [Compound 26]
- EC50: 100 to 500 nM

SMILES: Cc1sc2c(c1C)C(c1ccc(Cl)cc1)=N[C@@H](CC(=O)Nc1ccc(OCCOCCOCCOCCOCCOCCOCCOCCNC(=O)CCNC(=O)c3nc(NC(=O)CCNC(=O)c4cc(NC(=O)c5nc(NC(=O)CCNC(=O)c6cc(NC(=O)c7nccn7C)cn6C)cn5C)cn4C)cn3C)cc1)c1nnc(C)n1-2 [Compound 23]
- EC50: 100 to 500 nM

SMILES: Cc1sc2c(c1C)C(c1ccc(Cl)cc1)=N[C@@H](CC(=O)Nc1ccc(OCCOCCOCCOCCN3CCN(CCOCCOCCOCCNC(=O)CCNC(=O)c4nc(NC(=O)CCNC(=O)c5cc(NC(=O)c6nc(NC(=O)CCNC(=O)c7cc(NC(=O)c8nccn8C)cn7C)cn6C)cn5C)cn4C)CC3)cc1)c1nnc(C)n1-2 [Compound 40]
- EC50: < 100 nM

SMILES: CCCNC(=O)c1nc(NC(=O)CCNC(=O)c2cc(NC(=O)c3nc(NC(=O)CCNC(=O)c4cc(NC(=O)c5nc(NC(=O)CCNC(=O)COCCOCCOCCOCCOCCOCCOCCOc6ccc(NC(=O)C[C@@H]7N=C(c8ccc(Cl)cc8)c8c(sc(C)c8C)-n8c(C)nnc87)cc6)cn5C)cn4C)cn3C)cn2C)cn1C [Compound 51]
- EC50: < 100 nM

SMILES: CC(=O)N1c2ccc(-c3ccc(C(=O)NCCOCCOCCOCCOCCOCCOCCOCCOCCNC(=O)c4cc(NC(=O)c5nc(NC(=O)CCNC(=O)c6cc(NC(=O)c7nc(NC(=O)CCNC(=O)COCCOCCOCCN8CCN(CC9CCNCC9)CC8)cn7C)cn6C)cn5C)cn4C)cc3)cc2[C@H](Nc2ccc(Cl)cc2)C[C@@H]1C [Compound 73]
- EC50: > 500 nM

SMILES: Cc1sc2c(c1C)C(c1ccc(Cl)cc1)=N[C@@H](CC(=O)Nc1cccc(OCCOCCOCCOCCOCCOCCOCCOCCOCCNC(=O)CCNC(=O)c3nc(NC(=O)CCNC(=O)c4cc(NC(=O)c5nc(NC(=O)CCNC(=O)c6cc(NC(=O)c7nccn7C)cn6C)cn5C)cn4C)cn3C)c1)c1nnc(C)n1-2 [Compound 65]
- EC50: 100 to 500 nM

SMILES: CC(=O)N1c2ccc(-c3ccc(C(=O)NCCOCCOCCOCCOCCOCCOCCOCCNC(=O)CCNC(=O)c4nc(NC(=O)CCNC(=O)c5cc(NC(=O)c6nc(NC(=O)CCNC(=O)c7cc(NC(=O)c8nccn8C)cn7C)cn6C)cn5C)cn4C)cc3)cc2[C@H](Nc2ccc(Cl)cc2)C[C@@H]1C [Compound 35, N-(5-((3-((2-((1-(4-((2S,4R)-1-acetyl-4-((4-chlorophenyl)amino)-2-methyl-1,2,3,4-tetrahydroquinolin-6-yl)phenyl)-1,27-dioxo-5,8,11,14,17,20,23-heptaoxa-2,26-diazanonacosan-29-yl)carbamoyl)-1-methyl-1H-imidazol-4-yl)amino)-3-oxopropyl)carbamoyl)-1-methyl-1H-pyrrol-3-yl)-1-methyl-4-(3-(1-methyl-4-(1-methyl-1H-imidazole-2-carboxamido)-1H-pyrrole-2-carboxamido)propanamido)-1H-imidazole-2-carboxamide]
- EC50: < 100 nM

SMILES: CC(=O)N1c2ccc(C3=CCN(C(=O)COCCOCCOCCOCCOCCOCCOCCNC(=O)CCNC(=O)c4nc(NC(=O)CCNC(=O)c5cc(NC(=O)c6nc(NC(=O)CCNC(=O)c7cc(NC(=O)c8nccn8C)cn7C)cn6C)cn5C)cn4C)CC3)cc2N(Cc2ccccc2CO)C[C@@H]1C1CC1 [Compound 45]
- EC50: 100 to 500 nM
